Test results taken from patent US11111500B2, “Mutated protoporphyrinogen IX oxidase (PPX) genes” (CIBUS US LLC, priority 2010, dated 2021).

Legend:
potato plastidal PPX = experiment: Tolerance to saflufenacil of HemG mutant E. coli complemented with potato plastidal PPX (plate based selection, colony count); type: cell-based, Solanum tuberosum
Source text: StcPPX1, less its chloroplast transit peptide was cloned from cDNA into Cibus' proprietary functional screening vector. This vector may be used both for functional screening, and for GRON QC. The potato PPX genes were used to complement the HemG mutant strain of E. coli, which lacks a functional HemG gene, a bacterial homolog of PPX. Without a complementing gene, the media must be supplemented with hematin for E. coli growth.
In order to assess mutations that confer tolerance to PPX inhibitors such as Chateau (flumioxazin-Valent/Sumitomo), Naja (diphenylether—MAI) or Kixor (saflufenacil—BASF). Pure active ingredients for the PPX inhibiting herbicides Chateau (flumioxazin—Valent/Sumitomo), Spartan (sulfentrazone—FMC) and Kixor/Sharpen (saflufenacil—BASF) were obtained. […] This was further refined, and 0.75 mM sulfentrazone was also used to select for tolerance. […] All potato mitochondrial PPX genes and alleles were tested for natural tolerance to sulfentrazone and flumioxazin, but none were tolerant.
Tolerance of all possible amino acid substitutions at each position displaying tolerance to sulfentrazone or flumioxazin were tested. Next, single amino acid substitutions were combined in all permutations and combinations to assess complementation and herbicide tolerance.

[1] = tested on: leaf disc explants of in vitro grown potato plants; experiment: Leaf disk kill curve (callus formation in leaf disc explants); type: cell-based; conditions: solid Haberlach culture medium, 1% DMSO
Experimental: Aimed at establish the concentration of sulfentrazone that will inhibit callus formation in leaf disc explants, leaf discs were punched with a sterile hole punch from 5 weeks old in vitro grown potato plants. The leaf discs were cultured in petri dishes containing solid Haberlach culture medium containing various concentrations of Sulfentrazone in a final concentration of 1% DMSO. Six leaf discs cultured at each herbicide concentration. Plates were sealed with micropore tape and incubated at room temperature (approximately 23° C.). In an initial experiment, 7.8 μM sulfentrazone, the lowest concentration tested in that experiment, was sufficient to stop callus formations and bleach all leaf discs within 20 days. […] Similar leaf disc kill curve experiments were performed using saflufenacil where 0.5 μM of this herbicide was sufficient to inhibit callus formation in almost all leaf discs after 20 days.

## CC(C)N(C)S(=O)(=O)NC(=O)c1cc(-n2c(=O)cc(C(F)(F)F)n(C)c2=O)c(F)cc1Cl [saflufenacil]
Potato plastidal PPX
  saflufenacil concentration with no growth of the wildtype construct: 0.3 mM
[1]
  concentration sufficient to inhibit callus formation in almost all leaf discs after 20 days: 0.5 µM
